Series [1] in a line: Water solubility of the substrates. Type of series: physicochemical.
Series [2] concerns the target T1, euglobulin thrombin (Homo sapiens, UniProt P00734).
T1 construct: The euglobulin thrombin fraction was prepared from defibrinated human plasma; from tissue; host or cells: defibrinated human plasma (euglobulin fraction, acid precipitation, method of Josso and Prou-Wartelle)
The experiment in a line: Decay constants of thrombin in plasma. It is filed as biochemical. The following applies: [S] 25 mM in plasma. As for the experimental part: (§1) To this mixture was added 10 μL of a thrombin preparation to achieve a final concentration of 100 nM. At regular time intervals (5-10 s) 10 μL samples were subsampled into 490 μL buffer B which contained 200 μM of S2238 to determine thrombin activity. After 2 min the reaction was stopped by adding 300 μL 1M citric acid. The moment of sampling and stopping were recorded on a personal computer with pushbutton-equipped pipettes. The optical density was then read at 405 nm and the obtained amidolytic activities were used to calculate the decay constants. The obtained decay constant is the sum of the decay constants of the reaction of thrombin with antithrombin III (k1) and α2 -macroglobulin (k2).
as §1, with “Decay constants of thrombin in plasma: To 120 μL defibrinated plasma was added: 50 μL of buffer A which contained the substances to be tested. To” for “To”, “was” for “was then”

For series [3], the system named is thrombin generation in tissue factor triggered plasma. As to the kind of experiment: Manual determination of thrombin generation in plasma (subsampling method) and calculated prothrombinase activity. Type of series: biochemical, human. As for the experimental part: Manual determination of thrombin generation in plasma: Extrinsic pathway: To 480 μL defibrinated plasma were added: 172 μL buffer A which contains the substrate at concentrations between 0 to 2000 μM and 20 μL of a 54 μM phospholipid solution (final concentration: 1.5 μM). After incubation of 4 min at 37° C., 24 μL tissue factor (undiluted) was added. Thrombin formation started at zero time by adding 24 μL of a 0.5 M CaCl2 solution (final concentration: 16.67 mM). At regular time intervals of 12 s samples of 10 μL were subsampled as described above. From the amidolytic activities thus obtained, the thrombin generation curve can be drawn. […] Intrinsic pathway: To 480 μL defibrinated plasma were added: 168 μL buffer A which contains the substrate at concentrations between 0 to 1000 μM and 48 μL Actin FS (undiluted). This mixture was intensively mixed and incubated for 4 min at 37° C. Thrombin generation was started at zero time by adding 24 μL of a 0.5 M CaCl2 solution (final concentration: 16.67 mM).
Influence of the substrate on the prothrombinase-complex: With the obtained decay constants and from the curves obtained by the subsampling method we calculated the course of prothrombin conversion and the course of prothrombinase concentration.
Manual determination of thrombin generation in plasma: Extrinsic pathway: To 480 μL defibrinated plasma were added: 172 μL buffer A which contained the substrate at concentrations between 0 to 2000 μM and 20 μL of a 54 μM phospholipid solution (final concentration: 1.5 μM). After incubation for 4 min at 37° C., 24 μL tissue factor (undiluted) was added. Thrombin formation started at zero time by adding 24 μL of a 0.5 M CaCl2 solution (final concentration: 16.67 mM). At regular time intervals of 12 s samples of 10 μL were subsampled as described above. From the amidolytic activities thus obtained, the thrombin generation curve can be drawn.
Influence of the substrate on the prothrombinase-compzex: With the obtained decay constants and from the curves obtained by the subsampling method we calculated the course of prothrombin conversion and the course of prothrombinase concentration.

For series [4], the system named is thrombin formation in plasma. The experiment in a line: Continuous registration of the thrombin generation curve (continuous assay of ETP). It is filed as biochemical, human. The following applies: 25 mM hydroxylamine. As for the experimental part: Continuous registration of the thrombin generation curve: Extrinsic pathway: In a polystyrene microcuvette were added: 400 μL defibrinated plasma, 20 μL of a 45 μM phospholipid solution (final concentration: 1.5 μM), 140 μL of buffer A which contains the substrate at the desired final concentration (100-2000 μM). After 4 min of incubation at 37° C., 20 μL tissue factor (undiluted) was added. Thrombin generation was started by adding 20 μL of a 0.5 M CaCl2 solution (final concentration: 16.67 mM); during the measurement the temperature was kept at 37° C. The optical density was monitored at 405 nm. From the obtained optical density curve, the first derivative was calculated. […] The optical density was measured at 37° C. at 405 nm during 20 min.
Continuous registration of the thrombin generation curve: Extrinsic pathway: In a polystyrene microcuvette were added: 400 μL defibrinated plasma, 20 μL of a 45 μM phospholipid solution (final concentration: 1.5 μM) and 140 μL of buffer A which contains the substrate at the desired final concentration (500 μM). […] The optical density was monitored at 405 nm. From the obtained optical density curve, the first derivative was calculated giving the enzyme concentration during the measurement. […] The optical density was measured at 37° C. at 405 nm during 20 min. […] The optical density was measured at 37° C. at 405 nm during 25 min.

Series [5] addresses T2, thrombin (Homo sapiens, UniProt P00734). The following applies: Angliker et al; cited from earlier work.
The target of series [6] is T3, factor Xa (Homo sapiens, UniProt P00742).
T3 construct: human factor Xa samples; gift of Dr. T. Lindhout (University of Limburg, Maastricht)
T3 sequence (P00742 41-179 limits assumed): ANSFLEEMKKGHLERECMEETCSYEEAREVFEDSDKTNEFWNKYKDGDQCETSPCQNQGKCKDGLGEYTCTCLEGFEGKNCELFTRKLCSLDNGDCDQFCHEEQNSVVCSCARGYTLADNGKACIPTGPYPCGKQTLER
T3 sequence (P00742 235-488 limits assumed): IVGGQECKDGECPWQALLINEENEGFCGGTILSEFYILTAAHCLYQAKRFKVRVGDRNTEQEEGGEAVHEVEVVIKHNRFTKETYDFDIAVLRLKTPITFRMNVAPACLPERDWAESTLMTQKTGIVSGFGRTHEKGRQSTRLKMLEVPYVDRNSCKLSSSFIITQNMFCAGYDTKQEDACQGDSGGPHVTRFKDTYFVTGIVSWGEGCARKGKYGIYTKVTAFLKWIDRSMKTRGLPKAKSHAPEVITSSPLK
The following applies: entry marked ^a (Hemker et al. 1993, footnote of Table 1); cited from earlier work.

Series [7] concerns the target T4, human α-thrombin (Homo sapiens, UniProt P00734).
T4 construct: Pure human α-thrombin; gift of Dr. T. Lindhout (University of Limburg, Maastricht)
The following applies: from Hemker H.C. et al. (1993); cited from earlier work.

Series [8] relates to Factor Xa. The following applies: Serbio patent EP-B-0 280 610; cited from earlier work.
The target in series [9] is T2, thrombin. Further details: Pure human α-thrombin; gift of Dr. T. Lindhout (University of Limburg, Maastricht). The following applies: SQ68 reference, same values as Table 1 entry 17 (from Hemker et al. 1993); cited from earlier work.
The target in series [10] is T3, factor Xa. The following applies: SQ68 reference, same values as Table 2 entry 17; cited from earlier work.
The subject of series [11] is thrombin. The following applies: Serbio patent EP-B-0 280 610; cited from earlier work.
Series [12] deals with plasmin. The following applies: Serbio patent EP-B-0 280 610; cited from earlier work.
The subject of series [13] is protein C. The following applies: Serbio patent EP-B-0 280 610; cited from earlier work.

Read-outs that look alike come from different tables or passages of the source. Square brackets hold non-standard residues; d marks the D form. Peptide text beside a SMILES is read from it. * marks the point of attachment. pNA = O=[N+]([O-])c1ccc(N*)cc1; Nle = CCCC[CH](N)C(=O)O; Pip = O=C(O)[CH]1CCCCN1; CH2Cl = ClC*

For the molecule `CCCCC(NC(=O)C1CCCCN1C(=O)C(N)Cc1ccccc1)C(=O)Nc1ccc([N+](=O)[O-])cc1.Cl` (centres unmarked) [Substrate 6] (H-Phe-[Pip]-[Nle]-pNA; configuration not given here), the water solubility result in series [1] was “restricted water solubility”.
With `NO` [hydroxylamine, reference compound], in series [2], the “(k1,corr) = k1,corr /1.856” value turned out to be 0.585 min⁻¹; the “k1,corr : k1 after correcting for k2,M and 0.170” value was 1.085 min⁻¹; the “k1 : AT-III dependent decay of thrombin” value was determined as 1.253 min⁻¹; the “k2 : α2 M dependent decay of thrombin” value was 0.059 min⁻¹. In series [2], the koverall turned out to be 1.312 min⁻¹ and the t1/2 is listed as 31.70 s. Moreover, in [3] ([S] 25 mM in plasma), the “k2,M : k2 determined by the subsampling method” value was 0.057 min⁻¹. The “influence on the prothrombinase complex / coagulation cascade” value in series [3] (calculated from decay constants and manual thrombin generation curves) is reported as “did not influence the coagulation cascade”. For the same molecule, in series [3] (hydroxylamine 25 mM), the “AA: amidolytic activity (maximum)” value is 383.88 mOD/min, the “PT: prothrombinase concentration (maximum)” value was 1227 mOD/min, the “T: thrombin concentration (maximum)” value was 378.03 mOD/min and the “t: time point at which maximum of amidolytic activity is achieved” value is recorded as 72 s. Besides, in series [3] (hydroxylamine 25 mM), the “t: time point at which maximum of prothrombinase concentration is achieved” value is 36 s and the “t: time point at which maximum of thrombin concentration is achieved” value is 72 s. The “residual amidolytic activity of the α2 M-thrombin complex” value in series [4] was “substantially reduced”.
Take `CC(=O)NCC(=O)N[C@H](C(=O)N[C@@H](CCCNC(=N)N)C(=O)CCl)C(C)C` [Ac-Gly-Val-Arg-CH2 Cl] (Ac-Gly-Val-Arg-CH2Cl): in [5], the “ki value, times lower than that for D-Phe-Pro-Arg-CH2 Cl” value is reported as 3×10^4.
As for `Cl.N=C(N)NCCC[C@H](NC(=O)CNS(=O)(=O)c1ccc2ccccc2c1)C(=O)Nc1ccc([N+](=O)[O-])cc1` [Substrate 25], the water solubility result in series [1] is “restricted water solubility”.
In the case of `COC(=O)CC(=O)NC(C)(C)C(=O)N[C@@H](CCCNC(=N)N)C(=O)Nc1ccc([N+](=O)[O-])cc1.Cl` [MZ-Aib-Arg-pNA.HCl, malonyl-α-aminoisobutyryl-arginine p-nitroanilide methyl ester monohydrochloride], in [6], the Km (in general, the substrate concentration at which the rate is half of its maximum) is 3940 µM; the kcat – broadly, the number of substrate molecules converted per active site and unit of time at saturation – is 2.9 s⁻¹; the “kcat /Km” value was 738 M/s. Moreover, in [7], the Km was 830 µM, the kcat was 0.46 s⁻¹ and the “kcat /Km” value is 554 M/s. For the same molecule, the “rate of hydrolysis for Factor Xa” value in [8] was 0.01. In series [9], the Km is 830 µM, the Thrombin kcat was 0.46 s⁻¹ and the “Thrombin kcat /Km” value is 554 M/s. Moreover, in [10], the “Factor Xa kcat” value is 2.9 s⁻¹, the “Factor Xa kcat /Km” value was 738 M/s and the Km is 3940 µM. Further, the “rate of hydrolysis for thrombin” value in series [11] is recorded as 0.04. The “rate of hydrolysis for plasmin” value in series [12] is on record as 0.02. Also, the “rate of hydrolysis for protein C” value in series [13] is reported as 0.03.
`CCCC[C@H](NC(=O)[C@@H]1CCCN1C(=O)[C@H](N)Cc1ccccc1)C(=O)Nc1ccc([N+](=O)[O-])cc1.Cl` [Substrate 7] (H-[dF]-Pro-[Nle]-pNA): the water solubility entry in series [1] was “restricted water solubility”.

Values taken from patent US6207399A, “Methods of determining endogenous thrombin potential (ETP) and thrombin substrates for use in said methods” (Hemker; Hendrik Coenraad, priority 1995, dated 2001).
